Reference: EPA's ToxValDB 9.5 (doi:10.2903/j.efsa.2011.2152)
≈ marks a conversion by molar mass, not a printed value.

Experiments:
Typhlodromus pyri = experiment: LR50; higher = less toxic; conditions: not reported; mortality
Aphidius rhopalosiphi = experiment: LR50; higher = less toxic; conditions: not reported; mortality
Coturnix japonica = conditions: acute; oral; mortality
Oryctolagus sp. = conditions: reproduction developmental; body weight
Bird = conditions: reproductive; mortality
Daphnia magna = conditions: chronic/long-term; duration: 21 days
Tagia sp. = conditions: acute; duration: 14 days; mortality
Cyprinus carpio = conditions: chronic/long-term; duration: 28 days
Oncorhynchus mykiss = conditions: acute; duration: 96 hours; mortality

## O=C(O)COc1ccc2ccccc2c1 [2-Naphthoxyacetic acid]
Typhlodromus pyri
  LR50: > 80 g/ha
Aphidius rhopalosiphi
  LR50: > 100 g/ha
Coturnix japonica
  LD50: > 2000 mg/kg-day
Oryctolagus sp.
  NOAEL: 60 mg/kg-day
Bird
  NOEC: 10 mg/kg-day
Rattus norvegicus; acute, oral, F, mortality
  LD50: 1420 mg/kg-day
Rattus norvegicus; developmental, development
  NOAEL: 60 mg/kg-day
Rattus norvegicus; reproduction developmental, mortality
  NOAEL: 30 mg/kg-day
Rattus norvegicus; subchronic, duration: 90 days, oral, organ weight
  NOAEL: 10 mg/kg-day
Daphnia magna
  NOEC: 6.7 mg/L
Tagia sp.
  LC50: 0.045 g/ha
Cyprinus carpio
  NOEC: 10 mg/L
Oncorhynchus mykiss
  LC50: 2.39 mg/L (≈ 11.8 µM)
